Measured values as given in article PMC7370100, “In Vitro Assessment of the Genotoxic Hazard of Novel Hydroxamic Acid- and Benzamide-Type Histone Deacetylase Inhibitors (HDACi)” (International Journal of Molecular Sciences, 2020).

Experiments:
[1] = tested on: V79 cells; assay: DNA damage response (DDR) activation by Western blot; assay type: cell-based, hamster; details: for activation of DDR factors (γH2AX, p-p53, p-Chk1, p-Chk2, p-Kap1 protein levels): V79, Western blot, in words; for DDR Activation: summary grade, V79; for DDR Activation: key: −: no effect; 0: weak effect; +: moderate effect; ++: strong effect; +++: very strong effect as compared to untreated controls
Procedure: (§1) The activation of the DDR was investigated by Western blot analysis. To this end, total cell extracts were obtained by lysing an equal number of cells in Roti®-Load buffer (Carl Roth GmbH (Karlsruhe, Germany)) (5 min, RT). After sonication (EpiShear™ Probe sonicator, Active Motif, La Hulpe, Belgium), proteins were denatured by heating (5 min, 95 °C) and separated by SDS-PAGE (6% or 12.5% gel). Proteins were transferred onto a nitrocellulose membrane (GE Healthcare, Little Chalfont, UK) via the Protean Mini Cell System (BioRad (München, Germany)). The membrane was blocked with 5% non-fat milk in TBS/0.1% Tween 20 (MERCK, Darmstadt, Germany) (2 h, RT) and incubated with the corresponding primary antibody (1:1000, overnight, 4 °C). After washing with TBS/0.1% Tween 20, the secondary (peroxidase-conjugated) antibody was added (1:2000, 2 h, RT). The Fusion FX7 imaging system (PeqLab, Erlangen, Germany) was used for visualization of the bound antibodies. The following primary antibodies were used: Anti-Ser15 phosphorylated protein 53 (p-p53), anti-Talin-1, anti-Ser 345 checkpoint kinase 1 (p-Chk1), anti-cleaved caspase 3 and 7 (Cell Signaling, Beverly, MA, USA), anti-Ser824 phosphorylated Krüppel-associated box domain (KRAB)-associated protein-1 (p-Kap1), anti-Ser1981 phosphorylated ataxia telangiectasia mutated (pATM) and anti-Thr68 phosphorylated checkpoint kinase-2 (p-Chk2) (both Abcam, Cambridge, MA, USA), anti-Ser139 phosphorylated histone H2AX (γH2AX, Millipore, Billerica, MA, USA), and anti-β-actin (Santa Cruz, CA, USA). As secondary antibodies, horseradish peroxidase-conjugated secondary antibodies goat anti-mouse IgG and mouse anti-rabbit IgG (Rockland, Limerick, PA, USA) (2 h, RT) were used.

[2] = tested on: V79 cells; assay: Cell cycle distribution / SubG1 fraction by flow cytometry; assay type: cell-based, hamster; details: 24 h, in words
Procedure: For flow cytometry-based analysis of cell cycle distribution, cells were trypsinized and combined with floating cells present in the medium. Following fixation with ice-cold ethanol (80%) (≥1 h, −20 °C), cells were pelleted (1000× g, 10 min, 4 °C) and suspended in phosphate-buffered saline (PBS). DNase-free RNase A (Serva, Heidelberg, Germany) was added (2 μg/mL, 1 h at RT). Nuclei were stained with propidium iodide (36.7 μg/mL Sigma, Steinheim, Germany) and analysis was performed using BD Accuri™C6 flow cytometer (BD, Franklin Lakes, NJ, USA).

[3] = tested on: V79 cells; assay: Caspase-3/-7 cleavage by Western blot (apoptosis); assay type: cell-based, hamster; details: for activation of caspase-3 and -7: 10 µM, 24 h, V79, in words; for Apoptosis: summary grade, calculated on the basis of caspase-3,-7 cleavage and SubG1 population, V79; for apoptosis: key: −: no effect; 0: weak effect; +: moderate effect; ++: strong effect; +++: very strong effect as compared to untreated controls
Procedure: as §1

[4] = tested on: V79 cells; assay: Nuclear γH2AX foci and pan-staining (immunocytochemistry); assay type: cell-based, hamster; details: for > 5 < 30 Foci [%] / Pan-Stained [%] / ≤ 5 Foci [%] (cells with γH2AX foci) / ≥ 30 Foci [%] / formation of nuclear γH2AX foci: 24 h; for > 5 < 30 Foci [%] / Pan-Stained [%] / ≤ 5 Foci [%] (cells with γH2AX foci) / ≥ 30 Foci [%] / gH2AX Foci / gH2AX Pan-Stain: V79; for gH2AX Foci / gH2AX Pan-Stain: summary grade; for formation of nuclear γH2AX foci: V79, in words; for gH2AX Foci: key: −: no effect; 0: weak effect; +: moderate effect; ++: strong effect; +++: very strong effect as compared to untreated controls; for gH2AX Pan-Stain: key: −: no effect; 0: weak effect; +: moderate effect; ++: strong effect; +++: very strong effect as compared to untreated controls
Procedure: The frequency of nuclear foci formed by S139 phosphorylated H2AX (γH2AX foci), which is a surrogate marker of DNA damage, especially DNA double-strand breaks (DSBs), was assayed by immunocytochemistry-based analysis. […] The appearance of nuclear 53BP1 foci, which is another marker of DSBs, was also determined by immunocytochemistry. Cells were fixed with 4% formaldehyde in phosphate-buffered saline (PBS) (MERCK, Darmstadt, Germany) (15 min, RT) followed by incubation with ice-cold methanol (≥20 min, −20 °C). After blocking (1 h, RT, blocking solution: 5% BSA (MERCK, Darmstadt, Germany) in PBS/0.3% Triton X-100 (Sigma, Steinheim, Germany)), incubation with γH2AX antibody and 53BP1 antibody was performed (1:500, overnight, 4 °C). After incubation with the secondary fluorescence-labeled antibody (1:500, 1 h, RT, in the dark), cells were mounted in Vectashield (Vector Laboratories (Burlingame, CA, USA)) containing DAPI. The number of nuclear γH2AX and 53BP1 foci was scored (Olympus BX43 fluorescence microscope). Only nuclei with distinct foci were evaluated and γH2AX pan-stained nuclei were excluded from the foci analyses. Data are shown as the mean ± SEM of three independent experiments with ≥50 nuclei analyzed per experimental condition.

[5] = tested on: V79 cells; assay: Alkaline comet assay (DNA strand breaks); details: for Mean (% DNA in tail) / DNA strand breaks (comet assay): 24 h; for Mean (% DNA in tail) / Comet Assay: V79; for Mean (% DNA in tail): untreated control 16.8; for DNA strand breaks (comet assay): V79, in words; for Comet Assay: summary grade
Procedure: The formation of DNA strand breaks and apurinic/apyrimidinic sites was monitored employing the alkaline comet assay [87], which is part of the OECD guideline of in vivo genotoxicity testings and detects DNA strand breaks (DNA single- and double-strand breaks) and alkali-labile sites [87]. Briefly, after aspiration of the medium and trypsinization, cells were mixed with 0.5% melting agarose and transferred onto agarose-coated (1.5%) slides. After lysis in alkaline buffer (pH 10) (1 h, 4 °C, light protection) and unwinding of the DNA in precooled lysis buffer (pH >13) (20 min, 4 °C, light protection), electrophoresis was performed (electric current: 300 mA constant; 1 V/cm). After neutralization in salt buffer (pH 7.5) and staining with propidium iodide solution (50 µg/mL), comets were evaluated by fluorescence microscopy. Quantification of migrated DNA was performed with TriTek Comet Score™ software Version 1.5, evaluating ≥50 cells per condition (blinded assessment). […] Fold increase in tail intensities of treated cells were calculated by relating the % DNA in tail of treated cells to that of the corresponding untreated controls, which were set to 1.0 (see Figure 2B).

| Structure (SMILES) | activation of DDR factors (γH2AX, p-p53, p-Chk1, p-Chk2, p-Kap1 protein levels) [1] | DDR Activation [1] | percentage of V79 cells in the SubG1 fraction [2] | activation of caspase-3 and -7 [3] | Apoptosis [3] | > 5 < 30 Foci [%] ([4]; 10 µM) | Pan-Stained [%] ([4]; 10 µM) | ≤ 5 Foci [%] (cells with γH2AX foci) ([4]; 10 µM) | ≥ 30 Foci [%] ([4]; 10 µM) | > 5 < 30 Foci [%] ([4]; 50 µM) | Pan-Stained [%] ([4]; 50 µM) | ≤ 5 Foci [%] (cells with γH2AX foci) ([4]; 50 µM) | ≥ 30 Foci [%] ([4]; 50 µM) | gH2AX Foci [4] | gH2AX Pan-Stain [4] | Mean (% DNA in tail) ([5]; 10 µM) | Mean (% DNA in tail) ([5]; 50 µM) | DNA strand breaks (comet assay) [5] | Comet Assay [5] | formation of nuclear γH2AX foci [4] | other results |
| --- | --- | --- | --- | --- | --- | --- | --- | --- | --- | --- | --- | --- | --- | --- | --- | --- | --- | --- | --- | --- | --- |
| O=C(CCCCCCC(=O)Nc1ccccc1)NO [Vorinostat, vorinostat, reference compound] | substantial increase in γH2AX levels but no, or only a minor, increase in p-p53 and p-Chk1/p-Chk2 levels | + | moderate increase of the percentage of V79 cells present in the SubG1 fraction | activation of caspase-3 and -7 | ++ | 18.5% | 3.2% | 75.9% | 2.4% | 34.2% | 26.7% | 23.6% | 15.6% | + | ++ | 8.0 % DNA in tail | 13.2 % DNA in tail | did not cause a significant rise in DNA damage | − |  | > 5 < 30 Foci [%] ([4]; 2 µM): 54.7%; Pan-Stained [%] ([4]; 2 µM): 0.0%; ≤ 5 Foci [%] (cells with γH2AX foci) ([4]; 2 µM): 39.3%; ≥ 30 Foci [%] ([4]; 2 µM): 6.0%; Mean (% DNA in tail) ([5]; 2 µM): 14.0 % DNA in tail |
| Nc1ccc(F)cc1NC(=O)c1ccc(CONC(=O)C=Cc2cccnc2)cc1 [MPK77] | failed to provoke a clear increase in γH2AX protein level | − | neither induced cell death as reflected by an increase in the SubG1 population | nor did they activate the executor caspases-3 and -7 | − | 49.9% | 0.0% | 49.6% | 0.6% | 41.5% | 0.0% | 58.6% | 0.0% | + | 0 | 34.0 % DNA in tail | 48.1 % DNA in tail | significant increase in DNA strand breaks at all concentrations tested | + | relatively low number of γH2AX foci | > 5 < 30 Foci [%] ([4]; 100 µM): 47.9%; Pan-Stained [%] ([4]; 100 µM): 10.2%; ≤ 5 Foci [%] (cells with γH2AX foci) ([4]; 100 µM): 35.5%; ≥ 30 Foci [%] ([4]; 100 µM): 6.5%; Mean (% DNA in tail) ([5]; 100 µM): 35.5 % DNA in tail |
| Nc1ccccc1NC(=O)c1ccc(CNC(=O)OCc2cccnc2)cc1 [Entinostat, entinostat, reference compound] | substantial increase in γH2AX levels but no, or only a minor, increase in p-p53 and p-Chk1/p-Chk2 levels | + | did not increase the percentage of cells present in the SubG1 fraction | only activated caspase-7 but not caspase-3 | 0 | 43.6% | 0.4% | 45.2% | 10.8% | 39.4% | 3.2% | 45.3% | 12.2% | + | + | 34.5 % DNA in tail | 37.8 % DNA in tail | only promoted the formation of DNA strand breaks | − | relatively low number of γH2AX foci | > 5 < 30 Foci [%] ([4]; 100 µM): 47.2%; Pan-Stained [%] ([4]; 100 µM): 4.6%; ≤ 5 Foci [%] (cells with γH2AX foci) ([4]; 100 µM): 41.7%; ≥ 30 Foci [%] ([4]; 100 µM): 6.5%; Mean (% DNA in tail) ([5]; 100 µM): 34.9 % DNA in tail |
| CN(C)c1ccc(C(=O)N(CC(=O)NCc2ccccc2)Cc2ccc(C(=O)NO)cc2)cc1 [DDK137] | substantial increase in γH2AX levels but no, or only a minor, increase in p-p53 and p-Chk1/p-Chk2 levels | + |  | activation of caspase-3 and -7 | + | 40.1% | 0.0% | 56.4% | 3.5% | 36.8% | 14.1% | 31.3% | 17.8% | + | + | 6.9 % DNA in tail | 17.3 % DNA in tail | did not cause a significant rise in DNA damage | − | stimulate the formation of γH2AX foci only at a high dose of 50 µM | > 5 < 30 Foci [%] ([4]; 2 µM): 38.5%; Pan-Stained [%] ([4]; 2 µM): 0.0%; ≤ 5 Foci [%] (cells with γH2AX foci) ([4]; 2 µM): 60.8%; ≥ 30 Foci [%] ([4]; 2 µM): 0.7%; Mean (% DNA in tail) ([5]; 2 µM): 15.1 % DNA in tail |
